Experiments:
[1] = biological target: purified human Factor XIa (Homo sapiens (Human), UniProt P03951); assay: Factor XIa Assay; type: biochemical; conditions: purified human Factor XIa 40 pM; substrate Z-Gly-Pro-Arg-AFC 100 μM; 50 mM HEPES pH 7.4; read-out: Human FXIa Ki
Method in brief: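 Ki obtained from the dependence of uninhibited/inhibited initial-velocity ratio on inhibitor concentration, under a competitive-inhibition model. Reactions used 100 μM Z-Gly-Pro-Arg-AFC and 40 pM final human Factor XIa in pH 7.4 HEPES buffer with NaCl, CaCl2 and PEG 8000; run at rt or 37° C following pre-equilibration.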

[2] = biological target: purified Human plasma Kallikrein (Homo sapiens (Human), UniProt P03952); assay: Kallikrein Assay; type: biochemical; conditions: purified Human plasma Kallikrein 0.5 nM; substrate Acetyl-K-P-R-AFC; 50 mM HEPES pH 7.4; Ki from IC50 by Cheng Prusoff
Method in brief: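 Purified human plasma kallikrein (0.5 nM) with fluorogenic Ac-K-P-R-AFC ([…]) in 50 mM HEPES pH 7.4, 150 mM NaCl, 5 mM CaCl2, 0.1% PEG 8000, at rt or 37 °C. Substrate hydrolysis rate read with and without inhibitor; IC50 from four-parameter logistic fit, converted to Ki by Cheng–Prusoff.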

Chain of purified Human plasma Kallikrein (P03952 391-638): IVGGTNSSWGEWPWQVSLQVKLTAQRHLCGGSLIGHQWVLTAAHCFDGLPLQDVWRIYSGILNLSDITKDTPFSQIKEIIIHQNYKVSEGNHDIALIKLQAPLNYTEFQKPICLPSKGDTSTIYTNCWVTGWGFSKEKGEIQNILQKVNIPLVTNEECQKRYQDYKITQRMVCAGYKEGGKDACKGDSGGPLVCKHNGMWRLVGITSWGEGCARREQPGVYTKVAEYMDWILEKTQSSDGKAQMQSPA
Chain of purified Human plasma Kallikrein (P03952 20-390 partner): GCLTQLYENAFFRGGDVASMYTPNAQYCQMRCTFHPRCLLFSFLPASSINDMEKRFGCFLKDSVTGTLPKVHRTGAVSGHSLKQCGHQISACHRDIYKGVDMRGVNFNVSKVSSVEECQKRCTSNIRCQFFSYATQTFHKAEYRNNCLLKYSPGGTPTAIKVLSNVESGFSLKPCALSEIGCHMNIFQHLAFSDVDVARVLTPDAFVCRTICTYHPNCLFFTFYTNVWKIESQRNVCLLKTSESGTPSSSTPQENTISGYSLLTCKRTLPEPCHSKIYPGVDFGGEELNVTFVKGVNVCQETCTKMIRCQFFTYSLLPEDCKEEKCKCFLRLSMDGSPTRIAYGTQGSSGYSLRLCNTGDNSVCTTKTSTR
Chain of purified human Factor XIa (P03951 388-625): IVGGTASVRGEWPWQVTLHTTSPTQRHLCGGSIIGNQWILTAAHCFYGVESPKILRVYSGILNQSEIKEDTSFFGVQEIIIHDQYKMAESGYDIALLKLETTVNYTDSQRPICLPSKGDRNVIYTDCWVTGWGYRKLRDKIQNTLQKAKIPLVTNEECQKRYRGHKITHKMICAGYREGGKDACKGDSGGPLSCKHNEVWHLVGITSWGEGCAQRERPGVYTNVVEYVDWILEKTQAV
Chain of purified human Factor XIa (P03951 19-387 partner): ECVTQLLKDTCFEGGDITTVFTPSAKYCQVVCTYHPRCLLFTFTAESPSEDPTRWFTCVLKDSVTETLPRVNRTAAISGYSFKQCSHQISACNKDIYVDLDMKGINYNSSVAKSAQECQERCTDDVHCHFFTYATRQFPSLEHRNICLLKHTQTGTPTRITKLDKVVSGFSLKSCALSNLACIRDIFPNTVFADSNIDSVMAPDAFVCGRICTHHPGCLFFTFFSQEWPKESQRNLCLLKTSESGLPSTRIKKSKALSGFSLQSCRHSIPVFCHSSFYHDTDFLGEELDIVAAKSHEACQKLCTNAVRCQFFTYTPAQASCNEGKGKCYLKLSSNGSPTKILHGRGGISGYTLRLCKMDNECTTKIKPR

Ki [1] [nM] | Ki [2] [nM] | Compound
0.13 | 0.26 | CCc1[nH]c2nc1-c1ccc(NC(=O)OC)cc1NC(=O)CCCCC2c1ccc(-c2c(F)ccc(Cl)c2F)c[n+]1[O-] (single isomer, unassigned) [Example 112-a, (Z)-5-(3-Chloro-2,6-difluorophenyl)-2-(1^5-ethyl-2^4-((Methoxycarbonyl)amino)-4-oxo-1^1H-3-AZA-1(4,2)-imidazola-2(1,2) -benzenacyclononaphane-9-yl)pyridine 1-oxide]
0.13 | 0.36 | COC(=O)Nc1ccc2c(c1)NC(=O)CCCC[C@H](c1ccc(-c3cc(Cl)ccc3-n3cc(Cl)nn3)c[n+]1[O-])c1cccc-2c1 (single isomer, unassigned) [Example 37]
0.15 | 2.44 | CCc1[nH]c2nc1-c1ccc(NC(=O)OC)cc1NC(=O)CCCC[C@@H]2c1ccc(-c2c(F)cccc2OC(F)F)c[n+]1[O-] (single isomer, unassigned) [Example 127]
1.07 | 4.92 | COC(=O)Nc1ccc2c(c1)NC(=O)CC1CC1CC(c1ccc(-c3c(C(F)F)ccc(C)c3F)c[n+]1[O-])c1nc-2c(C)[nH]1 (racemic) [Example 158]
2.2 | 5.47 | COC(=O)Nc1ccc2c(c1)NC(=O)CCCCC(c1ccc(-c3c(F)ccc(Cl)c3F)c[n+]1[O-])c1cc-2cc[n+]1[O-] (stereo not shown) [Example 83, 9-(5-(3-chloro-2,6-difluorophenyl)-1-oxidopyridin-2-yl)-2^4-((methoxycarbonyl)amino)-4-oxo-3-aza-1(4,2)-pyridin-1-iuma-2(1,2)-benzenacyclononaphane 1^1-oxide]
0.21 | 1.87 | COC(=O)Nc1ccc2c(c1)NC(=O)CCCCC(c1ccc(-c3c(F)cccc3OC(F)F)c[n+]1[O-])c1nc-2c(C2CC2)[nH]1 (single isomer, unassigned) [Example 113-a, (Z)-2-(1^5-cyclopropyl-2^4-((methoxycarbonyl)amino)-4-oxo-1^1H-3-aza-1(4,2)-imidazola-2(1,2)-benzenacyclononaphane-9-yl)-5-(2-(difluoromethoxy)-6-fluorophenyl)pyridine 1-oxide]
0.46 | 5.08 | CCc1[nH]c2nc1-c1ccc(NC(=O)OC)cc1NC(=O)CCCC[C@@H]2c1ccc(-c2cc(F)ccc2OC(F)(F)F)c[n+]1[O-] (single isomer, unassigned) [Example 133]
26.3 | 660 | C[C@H]1CCC[C@@H](c2ccc(-c3cc(Cl)ccc3-n3cnnn3)c[n+]2[O-])c2cccc(c2)-c2cc(F)ccc2NC1=O [Example 3-c, 5-(5-Chloro-2-(1H-tetrazol-1-yl)phenyl)-2-((5S,9R)-2^5-fluoro-5-methyl-4-oxo-3-aza-1(1,3),2(1,2)-dibenzenacyclononaphane-9-yl)pyridine 1-oxide]
0.57 | 10.6 | C[C@H]1CCC[C@H](c2ccc(-c3cc(Cl)ccc3-n3cnnn3)c[n+]2[O-])c2cccc(c2)-c2cc(F)ccc2NC1=O [Example 3-b, 5-(5-chloro-2-(1H-tetrazol-1-yl)phenyl)-2-((5S,9S)-2^5-fluoro-5-methyl-4-oxo-3-aza-1(1,3),2(1,2)-dibenzenacyclononaphane-9-yl)pyridine 1-oxide]
3 | 14.4 | COC(=O)Nc1ccc2c(c1)NC(=O)CC1CC1CC(c1ccc(-c3c(F)ccc(Cl)c3F)c[n+]1[O-])c1nc-2c[nH]1 (racemic) [Example 153]
0.17 | 1.21 | COC(=O)Nc1ccc2c(c1)NC(=O)CCCCC(c1ccc(-c3cc(Cl)ccc3OC(F)(F)F)c[n+]1[O-])c1nc-2c[nH]1 (single isomer, unassigned) [Example 99-a, (Z)-5-(5-chloro-2-(trifluoromethoxy)phenyl)-2-(2^4-((methoxycarbonyl)amino)-4-oxo-1^1H-3-aza-1(4,2)-imidazola-2(1,2) -benzenacyclononaphane-9-yl)pyridine 1-oxide]
0.22 | 3.08 | COC(=O)Nc1ccc2c(c1)NC(=O)C(C)(C)CCC[C@H](c1ccc(-c3c(F)cccc3OC(F)F)c[n+]1[O-])c1nc-2c(C)[nH]1 (single isomer, unassigned) [Example 147]
0.1 | 0.29 | COC(=O)Nc1ccc2c(c1)NC(=O)CCCCC(c1ccc(-c3cc(Cl)ccc3-n3cnnn3)c[n+]1[O-])c1cccc-2c1 (single isomer, unassigned) [Example 6-a, 5-(5-Chloro-2-(1H-tetrazol-1-yl)phenyl)-2-(2^4-((methoxycarbonyl)amino)-4-oxo-3-aza-1(1,3),2(1,2) -dibenzenacyclononaphane-9-yl)pyridine 1-oxide]
3.5 | 10.6 | COC(=O)Nc1ccc2c(c1)NC(=O)C(C)CCCC(c1ccc(-c3c(F)ccc(Cl)c3F)c[n+]1[O-])c1cccc-2c1 (single isomer, unassigned) [Example 50-b, 5-(3-chloro-2,6-difluorophenyl)-2-(2^4-((methoxycarbonyl)amino)-5-methyl-4-oxo-3-aza-1(1,3),2(1,2)-dinenzenacyclononaphane-9-yl)pyridine 1-oxide]
